{"source": "paper PMC9714921", "about": "(PLOS Pathogens, 2022)", "key": {"Gpu-ACR-16": {"test_system": "Gpu-ACR-16", "experiment": "Voltage-clamp electrophysiology, N-AChR reconstituted in Xenopus laevis oocytes", "format": "cell-based, Gonglyonema pulchrum", "method": "(§1) cRNA for oocyte injection was prepared with the mMESSAGE mMACHINE T7 kit following manufacturers protocol (Ambion, USA). Concentration was determined using a Nanodrop spectrophotometer. Desired subunit combinations with associated accessory proteins were mixed and diluted with nuclease-free water to a final concentration of 250 ng/uL for each construct.\n(§2) Adult female X. laevis oocyte extraction was performed in accordance with the McGill University Animal Use Protocol 2015–7758 following standard protocol. Briefly, frog ovary lobes were placed in a Ca^2+-free OR2 solution (82 mM NaCl, 2 mM KCl, 1 mM MgCl2, 5 mM HEPES buffer, pH 7.3) and manually divided into clusters of <10 oocytes with thin tweezers followed by a 90-minute incubation in 10 mg/mL collagenase type II (Sigma-Aldrich, USA). Oocytes were washed in Ca^2+-free OR2 and placed ND96 solution (NaCl 96 mM, KCl 2 mM, CaCl2 1.8 mM, MgCl2 1 mM and HEPES 5 mM, pH 7.3) supplemented with sodium pyruvate 2.5 mM [86] and incubated at 18°C until cRNA injection. Oocytes were injected with 50 nL (12.5 ng of each injected gene) of the desired cRNA subunit and accessory protein combination mix with the NanojectII (Drummond Scientific, USA). Following injection, oocytes were incubated in ND96 buffer at 18°C until electrophysiology. All electrophysiology was conducted two days post-injection, except for the expression analysis assay in which oocytes were measured every day after injection for three consecutive days.\n(§3) All drugs were dissolved in recording solution (NaCl 100 mM, KCl 2.5 mM, CaCl2 1 mM, HEPES 5 mM, pH 7.3) to a stock concentration of 10 mM and diluted to their final recording concentrations. Oxantel and bephenium were first dissolved in DMSO to ensure a final recording concentration contained less than 0.1% DMSO. For agonist profiling, all drugs were diluted to a concentration of 100 μM.\nOocytes were placed individually in an RC3Z chamber (Harvard Apparatus, USA) submerged in recording solution (NaCl 100 mM, KCl 2.5 mM, CaCl2 1 mM, HEPES 5 mM, pH 7.3). The RC3Z chamber was connected to a perfusion system containing recording solution and ligand solutions. Pulled glass capillaries (World Precision Instruments, USA) were filled with 3M KCl and the tips clipped and checked for appropriate resistance (between 0.5 and 5 MΩ). A 3M KCl agar bridge grounded the oocyte bath chamber. Measurements were made using an Axon Axoclamp 900A amplifier with Digidata1550M. […] Ligand solutions were applied to the oocytes with an approximate flow rate of 1.2 m/s and current responses measured. Oocytes were exposed to the ligand solution until a distinct current peak was observed followed by a wash with the recording solution until current returned to baseline for a minimum of 10 seconds until the next ligand exposure. For BAPTA-AM exposed oocytes, oocytes were incubated in 100 μM BAPTA-AM for four hours prior to electrophysiology recording. Data was analyzed using Clampex 9.2 (Axon Instruments, USA) and statistical analysis and graphs produced in Prism (GraphPad version 9.1). T-tests were used to compare responses with error bars representing standard error. For concentration-response curves, individual oocyte current response to the different ligand concentrations were normalized to the response obtained with 300 μM. Data was fit using the Graphpad “log(agonist) vs normalized response–variable slope” equation, with 95% confidence intervals being reported. […] For examples of oocyte responses, recordings were filtered in Clampfit using the lowband pass at 40 Hz cutoff."}, "[1]": {"target": "Bma-ACR-16-asuICL chimera (Brugia malayi; Ascaris suum, UniProt A0A4E9FSR7+F1KYJ9)", "format": "cell-based, B. malayi (A. suum ICL)", "method": "(§4) B. malayi acr-16 and accessory proteins ric-3, unc-50, unc-74 and molo-1 were cloned from adult female B. malayi cDNA received as a gift from Dr. T. Geary using the primers described in S1 Table. B. malayi eat-18 was prepared from two overlapping oligonucleotide primers. Other subunits were synthesized from their predicted genome sequence (Gene Universal, USA) (S2 Table). […] All sequences were cloned into the pTD2 oocyte expression vector. Asu-ACR-16 and Tzc-ACR-16 chimeras were constructed using appropriate restriction enzymes, reciprocal exchange through ligation and confirmed by sequencing (McLab, USA).\nas §1, §2, §3\nOocytes were placed individually in an RC3Z chamber (Harvard Apparatus, USA) submerged in recording solution (NaCl 100 mM, KCl 2.5 mM, CaCl2 1 mM, HEPES 5 mM, pH 7.3). The RC3Z chamber was connected to a perfusion system containing recording solution and ligand solutions. Pulled glass capillaries (World Precision Instruments, USA) were filled with 3M KCl and the tips clipped and checked for appropriate resistance (between 0.5 and 5 MΩ). A 3M KCl agar bridge grounded the oocyte bath chamber. Measurements were made using an Axon Axoclamp 900A amplifier with Digidata1550M. […] Ligand solutions were applied to the oocytes with an approximate flow rate of 1.2 m/s and current responses measured. Oocytes were exposed to the ligand solution until a distinct current peak was observed followed by a wash with the recording solution until current returned to baseline for a minimum of 10 seconds until the next ligand exposure. For BAPTA-AM exposed oocytes, oocytes were incubated in 100 μM BAPTA-AM for four hours prior to electrophysiology recording. Data was analyzed using Clampex 9.2 (Axon Instruments, USA) and statistical analysis and graphs produced in Prism (GraphPad version 9.1). T-tests were used to compare responses with error bars representing standard error. For concentration-response curves, individual oocyte current response to the different ligand concentrations were normalized to the response obtained with 300 μM."}, "N. americanus N-AChR": {"test_system": "N. americanus N-AChR", "conditions": "read-out: EC50 μM ACh; accessory protein Ric-3; ref [33]; cited from earlier work"}, "P. equorum N-AChR": {"test_system": "P. equorum N-AChR", "conditions": "read-out: EC50 μM ACh; accessory protein Ric-3; ref [40]; cited from earlier work"}, "Asu-ACR-16-REM": {"test_system": "Asu-ACR-16-REM", "experiment": "Voltage-clamp electrophysiology, coding-sequence modified ACR-16 in oocytes", "format": "cell-based, A. suum", "conditions": "B. malayi ric-3 co-injected; agonist not named in the legend (ACh by the matching native values)", "method": "as §4, §1\nAdult female X. laevis oocyte extraction was performed in accordance with the McGill University Animal Use Protocol 2015–7758 following standard protocol. […] All electrophysiology was conducted two days post-injection, except for the expression analysis assay in which oocytes were measured every day after injection for three consecutive days. […]"}, "C. elegans N-AChR": {"test_system": "C. elegans N-AChR", "parameters": "method as in Charvet et al., 2018 [40]", "conditions": "read-out: EC50 μM ACh; accessory protein Ric-3; ref Charvet et al., 2018 [40]; cited from earlier work"}, "[2]": {"conditions": "co-injected: Bma-ric-3 (reference condition), listed as acetylcholine"}, "[3]": {"conditions": "co-injected: Bma-ric-3 + Cel-emc-6"}, "[4]": {"conditions": "co-injected: Bma-ric-3 + Cel-nra-2 + Cel-nra-4, listed as acetylcholine"}}, "note": "“And” between values parts separate entries of the source, which are not always exact repeats. Identical values can stand only once. Like-named read-outs stand apart in the source and are kept apart here."}
{"smiles": "CC(=O)OCC[N+](C)(C)C", "note": "[ACh, acetylcholine]", "values": [{"measurement": "response to 100 μM acetylcholine normalized to Day 3 response", "setting": "Gpu-ACR-16; Day 1 post-injection", "result": "19 ± 6", "unit": "%"}, {"measurement": "response to 100 μM acetylcholine normalized to Day 3 response", "setting": "Gpu-ACR-16; Day 2 post-injection", "result": "76 ± 6", "unit": "%"}, {"measurement": "current response to 100 μM acetylcholine", "setting": "Gpu-ACR-16; No accessory protein", "result": "0 ± 0", "unit": "nA"}, {"measurement": "current response to 100 μM acetylcholine", "setting": "Gpu-ACR-16; No accessory protein, listed as acetylcholine", "result": "0 ± 0 (n=14) nA"}, {"measurement": "current response to 100 μM acetylcholine", "setting": "Gpu-ACR-16; co-injected: Bma-ric-3 (reference condition)", "result": "1281 ± 197", "unit": "nA"}, {"measurement": "current response to 100 μM acetylcholine", "setting": "Gpu-ACR-16; [2]", "result": "1281 ± 197 (n=8) nA"}, {"measurement": "current response to 100 μM acetylcholine", "setting": "Gpu-ACR-16; co-injected: Bma-ric-3 + Bma-eat-18", "result": "1264 ± 177 (n=10) ns nA"}, {"measurement": "current response to 100 μM acetylcholine", "setting": "Gpu-ACR-16; co-injected: Bma-ric-3 + Bma-molo-1", "result": "1049 ± 77 (n=16) ns nA"}, {"measurement": "current response to 100 μM acetylcholine", "setting": "Gpu-ACR-16; co-injected: Bma-ric-3 + Bma-unc-50 + Bma-unc-74", "result": "847 ± 124 (n=14) ns nA"}, {"measurement": "current response to 100 μM acetylcholine", "setting": "Gpu-ACR-16; co-injected: Bma-ric-3 + Bma-unc-50 + Bma-unc-74 + Bma-eat-18", "result": "1854 ± 83", "unit": "nA"}, {"measurement": "current response to 100 μM acetylcholine", "setting": "Gpu-ACR-16; co-injected: Bma-ric-3 + Bma-unc-50 + Bma-unc-74 + Bma-eat-18, listed as acetylcholine", "result": "1854 ± 83 (n=14) nA"}, {"measurement": "current response to 100 μM acetylcholine", "setting": "Gpu-ACR-16; [3]", "result": "1628 ± 123 (n=17) ns nA"}, {"measurement": "current response to 100 μM acetylcholine", "setting": "Gpu-ACR-16; co-injected: Bma-ric-3 + Cel-nra-2 + Cel-nra-4", "result": "2553 ± 123", "unit": "nA"}, {"measurement": "current response to 100 μM acetylcholine", "setting": "Gpu-ACR-16; [4]", "result": "2553 ±123 (n=12) nA"}, {"measurement": "current response to 100 μM acetylcholine", "setting": "Gpu-ACR-16; co-injected: Hco-ric-3", "result": "~ 1400 nA"}, {"measurement": "current response to 100 μM acetylcholine", "setting": "Gpu-ACR-16; co-injected: Hco-ric-3, listed as acetylcholine", "result": "1403 ± 91 nA and 1403 ± 91 (n=14) ns nA"}, {"measurement": "EC50", "setting": "Gpu-ACR-16; read-out: EC50 ACh, concentration-response 0.3-300 μM, normalized to 300 μM, with 95% CI", "result": 10.5, "unit": "µM"}, {"measurement": "current response to 100 μM acetylcholine", "setting": "[1]; No accessory protein", "result": "0 ± 0 (n=15) nA"}, {"measurement": "current response to 100 μM acetylcholine", "setting": "[1]; [2]", "result": "59 ±43 nA and 59 ± 12 (n=14) nA"}, {"measurement": "current response to 100 μM acetylcholine", "setting": "[1]; co-injected: Bma-ric-3 + Bma-emc-6 + Cel-nra-2 + Cel-nra-4, listed as acetylcholine", "result": "1 ± 2 nA and 1 ± 1 (n=11) nA"}, {"measurement": "current response to 100 μM acetylcholine", "setting": "[1]; [3]", "result": "37 ± 12 (n=15) ns nA"}, {"measurement": "current response to 100 μM acetylcholine", "setting": "[1]; [4]", "result": "47 ± 18 (n=14) ns nA"}, {"measurement": "current response to 100 μM acetylcholine", "setting": "[1]; co-injected: Bma-ric-3 + Cel-nra-2, listed as acetylcholine", "result": "256 ± 89 (n=11) nA"}, {"measurement": "EC50", "setting": "N. americanus N-AChR", "result": "170 ± 19.2", "unit": "µM"}, {"measurement": "EC50", "setting": "P. equorum N-AChR", "result": "6.4 ± 0.6", "unit": "µM"}, {"measurement": "current response", "setting": "Asu-ACR-16-REM", "result": "2197 ± 383", "unit": "nA"}, {"measurement": "EC50", "setting": "C. elegans N-AChR", "result": "22 ± 1.2", "unit": "µM"}]}
